Source: patent US20140121236A1, “Compositions and Methods for Treating Myotonic Dystrophy Type 1” (UNIVERSITY OF SOUTHERN CALIFORNIA, priority 2012, published 2014)

Columns and labels:
[1] = test system: DM1 myoblasts; assay: Viability of DM1 myoblasts by counting surviving cells; format: cell-based, human; conditions: 4 days, surviving cells vs vehicle control
[2] = test system: DM1 myoblasts; assay: Toxicity by shape and size of the nuclei of DM1 myoblasts; format: cell-based, human; parameters: key: −: Nontoxic; +: 10% alterations in nuclei shape and size; ++: 20-30% alterations in nuclei shape and size; +++: 40-50% alterations in nuclei shape and size; ++++: 60% alterations in nuclei shape and size; +++++: very sick, almost no surviving cells; conditions: 4 days
[3] = test system: CUG-RNA foci in DM1 myoblasts; assay: FISH analysis of nuclear CUG-RNA foci in DM1 myoblasts; format: cell-based, human; conditions: 4 days, FISH
Experimental: DM1 myoblasts were then treated with 10 μM of either RCN-001 or the vehicle (DMSO) for 4 days and then examined by FISH using a Cy3 (CAG)10 probe.
Normal myoblasts were purchased from Lonza, Inc. DM1 myoblasts were a gift from Dr. Charles Thornton. Normal and DM1 myoblasts were maintained in SkGM Medium (Lonza, Inc.) containing 10% Fetal Bovine Serum and 1% Penicillin-Streptomycin, 5% CO2 at 37° C. Human Embryonic Kidney 293 Cells (293HEK) were maintained in Dulbecco's Modification of Eagle's Medium (DMEM) from Cellgro supplemented with 10% Fetal Bovine Serum and 1% Penicillin-Streptomycin, 5% CO2 at 37° C.
CUG-RNA foci were detected by performing FISH on untreated DM1 myoblasts and DM1 myoblasts following treatment. For FISH analysis, DM1 myoblasts were plated on a 24-well clear bottom polystyrene plate with circular glass coverslips followed by treatment. Prior to FISH analysis, cells were fixed using 4% paraformaldehyde in 1×PBS for 20 min at room temperature. FISH analysis was performed using a Cy3 conjugated (CAG)10 oligonucleotide probe (Integrated DNA Technologies, Inc.) as described by Taneja et al, 1995 and Dansithong et al, 2005. CUG-RNA foci were observed as a red signal using fluorescence microscopy. Immunofluorescence was performed as described by Dansithong et al, 2008. Endogenous SHARP was detected using SHARP polyclonal antibodies from Bethyl at a dilution of 1:1000. The secondary antibodies conjugated with FITC (Invitrogen) were used at a 1:2000 dilution. Chloride channel 1 (Clcn1 a.k.a. CIC-1) was detected using CIC-1 polyclonal antibodies from Santa Cruz. The secondary antibodies conjugated with Alexa Flour 488 (Invitrogen) were used at a 1:2000 dilution. FISH analysis in mouse muscle section was carried out as described in Mancodi et al, 2000 (9).

[4] = test system: MBNL1 and MBNL2 RNA splicing in DM1 myoblasts; assay: Splicing assay (RT-PCR) for RNAs from DM1 myoblasts; format: cell-based, human; conditions: 50 μM, 17 hours, RT-PCR
Experimental: A. Total RNA was isolated from normal (SKMC) myoblasts, untreated DM1 myoblasts and DM1 myoblasts treated with 50 μM RCN-001 or 50 μM Pentamidine for 17 hours and subjected to RT-PCR analysis using the indicated primers sets for MBNL1 and MBNL2 RNAs. GAPDH RNA was amplified in parallel as an internal control. The results of one of three experiments are shown. B. The relative levels of exon inclusion was measured by densitometry and tabulated as mean % exon inclusion +/− standard deviation.
Treatment of DM1 myoblasts with RCN-001 is also sufficient to rescue abnormal RNA splicing. Two RNAs were selected that show abnormal splicing in DM1 myoblasts: MBNL1 and MBNL2. DM1 myoblast were treated with 50 μM RCN-001 for 17 hours after which RNA was isolated and splice variants were analyzed as previously described (20-22).
Splicing assays for RNAs isolated from human myoblasts. DM1 patient myoblasts was treated with 50 μM of RCN-001 or Pentamidine for 17 h as described by Warf et al, 2009. Total RNA was isolated using the RNAeasy mini kit (Qiagen Inc., USA) following manufacture's protocol. cDNA was synthesized using 5 μg of total RNA using First-Strand cDNA synthesis kit (GE Healthcare). PCR amplification was carried out using 150 ng of cDNA for 35 cycles for each target RNA. The primers used for PCR amplification are as follows—
The relative band intensities were measured using densitometry analyses and the percent of exon inclusion was calculated as [exon inclusion/(exon inclusion+exon exclusion)]×100.

[5] = test system: DM1 splicing defects; conditions: literature reference 16 (Warf et al.); cited from earlier work

Structure (SMILES): CCCCCCc1cc2cc(C(=O)Nc3cccc(Br)c3)c(=O)oc2cc1O [RCN-018, N-(3-bromophenyl)-6-hexyl-7-hydroxy-2-oxo-2H-chromene-3-carboxamide]
- Toxicity: Viable ([1]; Table 2, 10 μM): − (less than 10% cell survival)
- Toxicity: Toxic ([2]; Table 2, 10 μM): +++++

Structure (SMILES): CCCCCCc1cc2cc(-c3cn4ccc(C)cc4n3)c(=O)oc2cc1O [RCN-013, 6-hexyl-7-hydroxy-3-(7-methylimidazo[1,2-a]pyridine-2-yl)-2H-chromen-2-one]
- # of Foci (percentage) 0-1: Percentage of cells with no or 1 nuclear foci ([3]; Table 4, 10 μM): 13 percentage
- # of Foci (percentage) >2: Percentage of cells with 2 or greater nuclear foci ([3]; Table 4, 10 μM): 87 percentage
- Toxicity: Viable ([1]; Table 4, 10 μM): +++ (50-60% cell survival)
- Toxicity: Toxic ([2]; Table 4, 10 μM): +++ (40-50% alterations in nuclei shape and size)

Structure (SMILES): CCCCCCc1cc2cc(-c3csc(-c4nc(-c5cc6cc(CCCCCC)c(O)cc6oc5=O)cs4)n3)c(=O)oc2cc1O [RCN-012]
- # of Foci (percentage) 0-1: Percentage of cells with no or 1 nuclear foci ([3]; Table 4, 10 μM): 14 percentage
- # of Foci (percentage) >2: Percentage of cells with 2 or greater nuclear foci ([3]; Table 4, 10 μM): 86 percentage
- Toxicity: Viable ([1]; Table 4, 10 μM): +++++ (90-100% cell survival)
- Toxicity: Toxic ([2]; Table 4, 10 μM): −

Structure (SMILES): CCCCCCc1cc2cc(C(=O)Nc3cccc(Cl)c3Cl)c(=N)oc2cc1O [RCN-016, N-(2,3-dichlorophenyl)-6-hexyl-7-hydroxy-2-imino-2H-chromene-3-carboxamide]
- # of Foci (percentage) 0-1: Percentage of cells with no or 1 nuclear foci ([3]; Table 2, 10 μM): 12 percentage
- # of Foci (percentage) >2: Percentage of cells with 2 or greater nuclear foci ([3]; Table 2, 10 μM): 88 percentage
- Toxicity: Viable ([1]; Table 2, 10 μM): +++ (50-60% cell survival)
- Toxicity: Toxic ([2]; Table 2, 10 μM): ++ (20-30% alterations in nuclei shape and size)

Structure (SMILES): CCCCCCc1cc2cc(C(=O)Nc3ccc(Br)cc3)c(=O)oc2cc1O [RCN-015, N-(4-bromophenyl)-6-hexyl-7-hydroxy-2-oxo-2H-chromene-3-carboxamide]
- # of Foci (percentage) 0-1: Percentage of cells with no or 1 nuclear foci ([3]; Table 2, 10 μM): 29 percentage
- # of Foci (percentage) >2: Percentage of cells with 2 or greater nuclear foci ([3]; Table 2, 10 μM): 71 percentage
- Toxicity: Viable ([1]; Table 2, 10 μM): +++ (50-60% cell survival)
- Toxicity: Toxic ([2]; Table 2, 10 μM): +++ (40-50% alterations in nuclei shape and size)

Structure (SMILES): CCCCCCc1cc2cc(C(=O)Nc3cccc(OC)c3)c(=O)oc2cc1O [RCN-014, 6-hexyl-7-hydroxy-N-(3-methoxyphenyl)-2-oxo-2H-chromene-3-carboxamide]
- # of Foci (percentage) 0-1: Percentage of cells with no or 1 nuclear foci ([3]; Table 1, 10 μM): 24 percentage
- # of Foci (percentage) >2: Percentage of cells with 2 or greater nuclear foci ([3]; Table 1, 10 μM): 76 percentage
- # of Foci (percentage) 0-1: Percentage of cells with no or 1 nuclear foci ([3]; Table 2, 10 μM): 24 percentage
- # of Foci (percentage) >2: Percentage of cells with 2 or greater nuclear foci ([3]; Table 2, 10 μM): 76 percentage
- Toxicity: Viable ([1]; Table 1, 10 μM): ++++ (70-80% cell survival)
- Toxicity: Viable ([1]; Table 2, 10 μM): ++++ (70-80% cell survival)
- Toxicity: Toxic ([2]; Table 1, 10 μM): + (10% alterations in nuclei shape and size)
- Toxicity: Toxic ([2]; Table 2, 10 μM): + (10% alterations in nuclei shape and size)

Structure (SMILES): CCN(CC)c1ccc2cc(-c3nnc(-c4ccc(Cl)cc4)o3)c(=O)oc2c1 [RCN-007, 3-(5-(4-chlorophenyl)-1,3,4-oxadiazol-2-yl)-7-(diethylamino)-2H-chromen-2-one]
- # of Foci (percentage) 0-1: Percentage of cells with no or 1 nuclear foci ([3]; Table 1, 10 μM): 17 percentage
- # of Foci (percentage) >2: Percentage of cells with 2 or greater nuclear foci ([3]; Table 1, 10 μM): 83 percentage
- Toxicity: Viable ([1]; Table 1, 10 μM): +++ (50-60% cell survival)
- Toxicity: Toxic ([2]; Table 1, 10 μM): +++ (40-50% alterations in nuclei shape and size)

Structure (SMILES): CCCCCCc1cc2cc(C(=O)Nc3ccc(Cl)c(Cl)c3)c(=O)oc2cc1O [RCN-017, N-(3,4-dichlorophenyl)-6-hexyl-7-hydroxy-2-oxo-2H-chromene-3-carboxamide]
- Toxicity: Viable ([1]; Table 2, 10 μM): − (less than 10% cell survival)
- Toxicity: Toxic ([2]; Table 2, 10 μM): +++++

Structure (SMILES): N=C(N)c1ccc(OCCCCCOc2ccc(C(=N)N)cc2)cc1 [pentamidine, reference compound]
- rescue of abnormal splicing of MBNL1 and MBNL2 [4]: did not perform as well RCN-001
- rescue of DM1 splicing defects shown by others [5]: partially rescue DM1 splicing defects

Structure (SMILES): CCCCCCc1cc2cc(-c3nnc(-c4ccc([N+](=O)[O-])cc4)o3)c(=O)oc2cc1O [RCN--005]
- # of Foci (percentage) 0-1: Percentage of cells with no or 1 nuclear foci ([3]; Table 1, 10 μM): 14 percentage
- # of Foci (percentage) >2: Percentage of cells with 2 or greater nuclear foci ([3]; Table 1, 10 μM): 86 percentage
- Toxicity: Viable ([1]; Table 1, 10 μM): + (10-20% cell survival)
- Toxicity: Toxic ([2]; Table 1, 10 μM): ++++ (60% alterations in nuclei shape and size)

Structure (SMILES): CCc1cc2c(CN3CCN(S(=O)(=O)Cc4ccccc4)CC3)cc(=O)oc2cc1O [RCN-020, 4-((4-(benzylsulfonyl)piperazin-1-yl)methyl)-6-ethyl-7-hydroxy-2H-chromen-2-one]
- # of Foci (percentage) 0-1: Percentage of cells with no or 1 nuclear foci ([3]; Table 3, 10 μM): 15 percentage
- # of Foci (percentage) >2: Percentage of cells with 2 or greater nuclear foci ([3]; Table 3, 10 μM): 85 percentage
- # of Foci (percentage) 0-1: Percentage of cells with no or 1 nuclear foci ([3]; Table 4, 10 μM): 15 percentage
- # of Foci (percentage) >2: Percentage of cells with 2 or greater nuclear foci ([3]; Table 4, 10 μM): 85 percentage
- Toxicity: Viable ([1]; Table 3, 10 μM): +++++ (90-100% cell survival)
- Toxicity: Viable ([1]; Table 4, 10 μM): +++++ (90-100% cell survival)
- Toxicity: Toxic ([2]; Table 3, 10 μM): −
- Toxicity: Toxic ([2]; Table 4, 10 μM): −

Structure (SMILES): CCCCCCc1cc2cc(-c3nnc(-c4cccc(F)c4)o3)c(=O)oc2cc1O [RCN-004, 3-(5-(3-fluorophenyl)-1,3,4-oxadiazol-2-yl)-6-hexyl-7-hydroxy-2H-chromen-2-one]
- # of Foci (percentage) 0-1: Percentage of cells with no or 1 nuclear foci ([3]; Table 1, 10 μM): 29 percentage
- # of Foci (percentage) >2: Percentage of cells with 2 or greater nuclear foci ([3]; Table 1, 10 μM): 71 percentage
- Toxicity: Viable ([1]; Table 1, 10 μM): ++ (30-40% cell survival)
- Toxicity: Toxic ([2]; Table 1, 10 μM): +++ (40-50% alterations in nuclei shape and size)

Structure (SMILES): CCCCCCc1cc2cc(-c3cn4ccccc4n3)c(=O)oc2cc1O [RCN-011, 6-hexyl-7-hydroxy-3-(imidazo[1,2-a]pyridine-2-yl)-2H-chromen-2-one]
- # of Foci (percentage) 0-1: Percentage of cells with no or 1 nuclear foci ([3]; Table 4, 10 μM): 17 percentage
- # of Foci (percentage) >2: Percentage of cells with 2 or greater nuclear foci ([3]; Table 4, 10 μM): 83 percentage
- Toxicity: Viable ([1]; Table 4, 10 μM): +++++ (90-100% cell survival)
- Toxicity: Toxic ([2]; Table 4, 10 μM): −

Structure (SMILES): CCN(CC)c1ccc2cc(-c3nnc(-c4cc5ccccc5cc4O)o3)c(=O)oc2c1 [RCN-009, 7-(diethylamino)-3-(5-(3-hydroxynaphthalen-2-yl)-1,3,4-oxadiazol-2-yl)-2H-chromen-2-one]
- # of Foci (percentage) 0-1: Percentage of cells with no or 1 nuclear foci ([3]; Table 3, 10 μM): 11 percentage
- # of Foci (percentage) >2: Percentage of cells with 2 or greater nuclear foci ([3]; Table 3, 10 μM): 89 percentage
- Toxicity: Viable ([1]; Table 3, 10 μM): ++ (30-40% cell survival)
- Toxicity: Toxic ([2]; Table 3, 10 μM): +++ (40-50% alterations in nuclei shape and size)

Structure (SMILES): O=c1oc2ccccc2cc1-c1nnc(-c2cccc(Br)c2)o1 [RCN-008, 3-(5-(3-bromophenyl)-1,3,4-oxadiazol-2-yl)-2H-chromen-2-one]
- # of Foci (percentage) 0-1: Percentage of cells with no or 1 nuclear foci ([3]; Table 3, 10 μM): 27 percentage
- # of Foci (percentage) >2: Percentage of cells with 2 or greater nuclear foci ([3]; Table 3, 10 μM): 23 percentage
- Toxicity: Viable ([1]; Table 3, 10 μM): +++ (50-60% cell survival)
- Toxicity: Toxic ([2]; Table 3, 10 μM): +++ (40-50% alterations in nuclei shape and size)

Structure (SMILES): CCCCCCc1cc2cc(C(N)=O)/c(=N/c3ccccc3OC)oc2cc1O [RCN-019, (Z)-6-hexyl-7-hydroxy-2-((2-methoxyphenyl)imino)-2H-chromene-3-carboxamide]
- # of Foci (percentage) 0-1: Percentage of cells with no or 1 nuclear foci ([3]; Table 2, 10 μM): 14 percentage
- # of Foci (percentage) >2: Percentage of cells with 2 or greater nuclear foci ([3]; Table 2, 10 μM): 86 percentage
- Toxicity: Viable ([1]; Table 2, 10 μM): +++ (50-60% cell survival)
- Toxicity: Toxic ([2]; Table 2, 10 μM): ++ (20-30% alterations in nuclei shape and size)
